Target: T1, Caspase-1 (Homo sapiens, UniProt P29466)
T1 sequence (P29466 whole entry): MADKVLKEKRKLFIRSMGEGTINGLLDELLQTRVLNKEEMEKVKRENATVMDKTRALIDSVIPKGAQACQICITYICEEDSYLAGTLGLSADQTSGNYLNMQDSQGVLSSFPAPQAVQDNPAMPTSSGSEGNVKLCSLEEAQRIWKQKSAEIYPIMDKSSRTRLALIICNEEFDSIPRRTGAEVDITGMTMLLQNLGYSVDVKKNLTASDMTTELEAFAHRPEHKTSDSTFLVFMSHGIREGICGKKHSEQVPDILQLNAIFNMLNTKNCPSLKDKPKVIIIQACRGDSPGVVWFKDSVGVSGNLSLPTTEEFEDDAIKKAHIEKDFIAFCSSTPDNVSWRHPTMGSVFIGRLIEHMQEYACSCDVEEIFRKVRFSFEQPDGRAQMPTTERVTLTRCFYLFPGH
Experiment: Inhibition of IL-1 beta converting enzyme (ICE) in human blood monocytes
Assay type: cell-based

C=CCOC(=O)N[C@@H](CC(=O)O)C(=O)COC(=O)/C=C/c1ccccc1
Ki: 90 µM

C=CCOC(=O)N[C@@H](CC(=O)O)C(=O)CSCCCc1ccccc1
Ki: 27 µM

C=CCOC(=O)N[C@@H](CC(=O)O)C(=O)CN(CCc1ccccc1)Cc1ccccc1
Ki: 68 µM

C=CCOC(=O)N[C@@H](CC(=O)O)C(=O)COC(=O)NCc1ccccc1
Ki: 74 µM

C=CCOC(=O)N[C@@H](CC(=O)O)C(=O)CNC(Cc1ccccc1)c1ccccc1 (stereo partly specified)
Ki: 70 µM

C=CCOC(=O)N[C@@H](CC(=O)O)C(=O)CNCc1ccccc1
Ki: > 100 µM

C=CCOC(=O)N[C@@H](CC(=O)O)C(=O)CNCCCc1ccccc1
Ki: 67 µM

C=CCOC(=O)N[C@@H](CC(=O)O)C(=O)COC(=O)CCOc1ccccc1
Ki: 23 µM

C=CCOC(=O)N[C@@H](CC(=O)O)C(=O)COC(=O)CCc1ccccc1
Ki: 20 µM

O=C(O)C[C@H](NC(=O)OCc1ccccc1)C(=O)COCCCc1ccccc1
Ki: 24 µM

CC(=O)N[C@@H](Cc1ccc(O)cc1)C(=O)N[C@H](C(=O)N[C@@H](C)C(=O)N[C@@H](CC(=O)O)C(=O)CCCCc1ccccc1)C(C)C
Ki: 42 µM

C=CCOC(=O)N[C@@H](CC(=O)O)C(=O)CCCCc1ccccc1
Ki: > 100 µM

C=CCOC(=O)N[C@@H](CC(=O)O)C(=O)COC(=O)CCC1CCCCC1
Ki: 3.5 µM

C=CCOC(=O)N[C@@H](CC(=O)O)C(=O)CNC(c1ccccc1)c1ccccc1
Ki: > 100 µM

C=CCOC(=O)N[C@@H](CC(=O)O)C(=O)CNCCc1ccccc1
Ki: 4.4 µM

C=CCOC(=O)N[C@@H](CC(=O)O)C(=O)CN(C)CCc1ccccc1
Ki: > 100 µM
